Data: article PMC7756445, “A Novel Prodrug of a nNOS Inhibitor with Improved Pharmacokinetic Potential” (Chemmedchem, 2020)

Tests used:
[1] = molecular target: T1, bovine eNOS (Bos taurus, UniProt P29473); assay: NOS inhibition, L-Arg to L-Cit conversion by HPLC with fluorescence detection; assay type: biochemical; settings: at 10 μM
T1 construct: purchased Cayman Chemicals (Ann Arbor, Michigan, USA)
Procedure: (§1) The amidoxime 2 was evaluated for its in vitro NOS inhibitory activity, by measuring the conversion of L‐Arg to L‐Cit, using a validated HPLC method with fluorescence detection, as previously reported.[ ^39 , ^40 , ^41 ] The human nNOS and iNOS inhibition percent were calculated at 1 μM, while bovine eNOS inhibition was evaluated at 10 μM in order to have an assessment of compound selectivity toward eNOS. Considering the highly conserved primary sequence (>90 %) between the human and bovine eNOS, this latter extremely resembles the human isozyme. In particular, there is only one amino acid variation in a hydrophobic pocket that is on the outside of the heme active site. Therefore the different source of eNOS is usually well accepted and should not affect the inhibitor evaluation. ^[42]
(§2) Recombinant human iNOS and nNOS, were purchased from Enzo Life Sciences, Inc. (New York, USA), while bovine recombinant eNOS was purchased from Cayman Chemicals (Ann Arbor, Michigan, USA). HPLC analyses were performed using a Waters system composed of a P600 model pump, a 2475 multi‐fluorescence detector, and a 7725i model sample injector (Rheodyne, Cotati, CA, USA) equipped with a 5 μL loop. The column was a XTerra MS C8 (250×4.6 mm i.d., […]; Waters). A column thermostat oven module Igloo‐Cil (Cil Cluzeau Info Labo, France) was used. Chromatograms were recorded on a Fujitsu Siemens Esprimo computer and data were processed by the Empower Pro software (Waters). The appropriate mobile phase was prepared daily, filtered through a 0.45 μm WTP membrane (Whatman, Maidstone, UK), sonicated and degassed before use. Column temperature was kept constant at 20 °C. All assays were performed in triplicate.
(§3) Enzymes were diluted in 2‐[4‐(2‐hydroxyethyl)piperazin‐1‐yl]ethanesulfonic acid (HEPES) buffer (pH 7.4) to obtain iNOS and nNOS 2.5 μg/mL stock solutions, and eNOS 300 μg/mL stock solution. To measure iNOS activity, 10 μL of iNOS stock solution were added to 80 μL of HEPES buffer at pH 7.4, containing 0.1 mM CaCl2, 1 mM D,L‐dithiothreitol (DTT), 0.5 mg/mL bovine serum albumin (BSA), 10 μM flavin mononucleotide (FMN), 10 μM flavin adenine dinucleotide (FAD), 30 μM tetrahydrobiopterin (BH4), 10 μg/mL calmodulin (CaM) and 10 μM L‐Arg. To measure eNOS and nNOS activities, 25 μL of enzyme stock solution were added to 75 μL of HEPES buffer pH 7.4, containing 2 mM CaCl2, 1 mM DTT, 0.5 mg/mL BSA, 10 μM FMN, 10 μM FAD, 30 μM BH4, 10 μg/mL CaM and 10 μM L‐Arg. Then, 10 μL of a 10 μM (iNOS and nNOS assay) or 100 μM (eNOS assay) solution of the test compound was added to the enzyme assay solution, followed by pre‐incubation of 15 min at 37 °C. The reaction was initiated by the addition of 10 μL of nicotinamide adenine dinucleotide phosphate (NADPH) 7.5 mM (iNOS) or 10 mM (eNOS and nNOS), carried out at 37 °C for 20 min, and stopped by adding 500 μL of ice‐cold CH3CN. The mixture was brought to dryness under vacuum and eventually stored at −20 °C, before the fluorescence derivatization. The o‐phthalaldehyde‐N‐acetylcysteine (OPA/NAC) reagent for fluorescence derivatization was prepared with the molar ratios of 1 : 3, reacting 5 mL of methanolic OPA solution and 20 mL of 0.2 M borate buffer containing 0.1 g of NAC for 90 min to final pH 9.3±0.05. The OPA/NAC solution was stored at 4 °C and saved for no longer than seven days. […] The fluorescence reaction is realized stirring 190 μL of supernatant and 60 μL of OPA/NAC solution for 5 min. […]

[2] = molecular target: T2, human iNOS (Homo sapiens, UniProt P35228); assay: as above; assay type: biochemical; settings: at 1 μM
T2 construct: purchased Enzo Life Sciences, Inc. (New York, USA)
Procedure: as §1, §2, §3

[3] = molecular target: T3, human nNOS (Homo sapiens, UniProt P29475); assay: as above; assay type: biochemical; settings: read-out: nNOS enzymatic inhibition
T3 construct: purchased Enzo Life Sciences, Inc. (New York, USA)
Procedure: as §1, §2, §3

[4] = PAMPA-GI assay; design: Papp at 2 h: dose or concentration left out as unconfirmed; settings: for Papp at 2 h: PAMPA
Procedure: The relative passive transcellular diffusion of compounds, expressed as permeability coefficient (Pe), was determined with a permeability equation. ^[45] The permeabilities of 1, 2, and 1400 W were determined at pH 5.0, 6.5, and 7.4 to mimic the physiological conditions of the GI tract (Table 1). […] As the new prodrug was designed for the potential treatment of neurodegenerative diseases, an important parameter is its capability to cross the BBB.
Each donor filtration plate well, carefully impregnated with 5 µL of this solution, was added of 150 μL of […] test compound buffer solutions (phosphate buffer for pH 7.4 and pH 6.5 and hydrochloric acid buffer for pH 1.4). Subsequently, the drug‐filled donor plate was placed onto the acceptor plate prefilled with the same buffer (300 μL) as the acceptor solution. Once replaced the plate lid, the resulting assembled donor‐acceptor plates were incubated at room temperature for 2 h. The concentration in the acceptor and donor solutions were determined by HPLC. The Pe was determined as previously reported. ^[47]

eNOS inhibition (in words) [1]: not able to inhibit
eNOS inhibition (in words) ([1]; listed as amidoxime): inactivity
iNOS inhibition (in words) [2]: not able to inhibit
iNOS inhibition (in words) ([2]; listed as amidoxime): inactivity
inhibition at 1 µM [3]: 53%
Papp at 2 h ([4]; pH 1.4): 0.66 ×10⁻⁶ cm/s
Papp at 2 h ([4]; pH 6.5): 1.57 ×10⁻⁶ cm/s
Papp at 2 h ([4]; pH 7.4): 2.03 ×10⁻⁶ cm/s
PAMPA-GI Pe (bound stated in text) ([4]; pH 6.5): > 1.5×10^−6
PAMPA-GI Pe (bound stated in text) ([4]; pH 7.4): > 1.5×10^−6
melting point: 112 to 115 °C
SMILES: C/C(=N\O)NC(c1ccccc1)c1ccccc1 [Compound 2, (1E)‐N‐(diphenylmethyl)‐N′‐hydroxyethanimidamide]
